SMILES strings stand for the structures.

Experimental findings from patent US7355063B2, “Shogaol compound and tyrosinase activity inhibitor comprising the compound” (Toagosei Co., Ltd., priority 2003, dated 2008) are described below.

Data set [1] concerns mushroom tyrosinase. Description: Tyrosinase activity inhibition test using L-dopa as substrate (Test Examples 1 and 2, absorbance at 475 nm). The data set is classed as biochemical. To be noted: Table 1. How it is done:
Using the compound 7 obtained in Example 2, the compound 13 obtained in Example 5, a mixture of the compound 18 and the compound 19 (existing molar ratio 45:55) obtained in Example 7, and arbutin (manufactured by Tokyo Kasei Kogyo Co., Ltd.) as a comparative control, a tyrosinase activity inhibition test was carried out using L-dopa as a substrate.
The specific test procedures are as follows. • (1) 1.80 ml of a phosphate buffer prepared by dissolving 1.000 g of sodium dihydrogen phosphate and 1.186 g of disodium hydrogen phosphate in 500 ml of distilled water, 1.00 ml of a substrate solution prepared by dissolving 32.7 mg of L-DOPA in 200 ml of distilled water, and 0.10 ml of a test solution prepared by dissolving the test compound in dimethyl sulfoxide were mixed together. • (2) 0.10 ml of an enzyme solution prepared by dissolving 3.0 mg (2400 units; manufactured by Sigma Corporation) of mushroom tyrosinase in 7.0 ml of distilled water was added to the solution prepared in (1), and the whole was stirred for 15 seconds. The resulting solution was maintained at 25° C., and the absorbance at 475 nm was measured one minute and 45 seconds later and 2 minutes and 45 seconds later. • (3) The test operations in the above (1) and (2) were conducted three times for the individual test compounds and blank test (only dimethyl sulfoxide), and the resulting numeric value was inserted in the following calculation formula and a mean value thereof was regarded as a tyrosinase activity inhibition ratio (%). Tyrosinase activity inhibition ratio (%)=[(T^1−T^2)/T^1]×100 • T^1=difference in absorbance of solution with addition of no test compound between 2 minutes and 45 seconds later and one minute and 45 seconds later • T^2=difference in absorbance of solution with addition of test compound was added between 2 minutes and 45 seconds later and one minute and 45 seconds later
Using the compound 40 obtained in Example 24 and arbutin (manufactured by Tokyo Kasei Kogyo Co., Ltd.) as a comparative control, a tyrosinase activity inhibition test was carried out using L-dopa as a substrate. The test procedure was in accordance with Test Example 1.

For data set [2], the target named is T1, hyaluronic acid-degrading enzyme (derived from bovine testicles, Type IV-S) (Bos taurus, UniProt Q2YDK3).
T1 construct: derived from bovine testicles manufactured by Sigma Corporation, Type IV-S; purchased Sigma Corporation Type IV-S; host or cells: bovine testicles
T1 sequence (Q2YDK3 36-553): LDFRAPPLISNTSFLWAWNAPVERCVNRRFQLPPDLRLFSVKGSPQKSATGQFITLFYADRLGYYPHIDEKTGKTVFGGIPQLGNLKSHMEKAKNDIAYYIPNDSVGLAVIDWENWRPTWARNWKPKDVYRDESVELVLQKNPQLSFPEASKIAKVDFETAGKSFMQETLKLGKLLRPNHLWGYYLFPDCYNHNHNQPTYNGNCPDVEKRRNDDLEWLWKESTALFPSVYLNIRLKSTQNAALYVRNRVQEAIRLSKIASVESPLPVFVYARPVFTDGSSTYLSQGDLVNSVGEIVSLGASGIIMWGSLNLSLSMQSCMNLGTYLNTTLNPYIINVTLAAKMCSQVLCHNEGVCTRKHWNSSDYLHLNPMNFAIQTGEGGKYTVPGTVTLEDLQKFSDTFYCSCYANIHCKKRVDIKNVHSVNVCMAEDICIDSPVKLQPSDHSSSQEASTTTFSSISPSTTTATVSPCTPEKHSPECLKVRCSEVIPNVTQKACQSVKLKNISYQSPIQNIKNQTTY
Description: Hyaluronic acid-degrading enzyme activity inhibition test. It is filed as biochemical. How it is done: Using the compound 7 obtained in Example 2, the compound 34, and magnesium ascorbate phosphate as a comparative control, a hyaluronic acid-degrading enzyme activity inhibition test was carried out.
(§1) First, the following solutions shown in A to H were each prepared. • A: 0.1M acetate buffer solution was prepared by dissolving 0.60 g of acetic acid in 100 ml of distilled water. • B: A hyaluronidase solution was prepared by dissolving 7.2 mg of a hyaluronic acid-degrading enzyme (derived from bovine testicles manufactured by Sigma Corporation, Type IV-S) into 3.0 ml of the acetate buffer (prepared in the above A). • C: An activator solution was prepared by dissolving 1.0 mg of compound 48/80 (a hyaluronidase activator manufactured by Sigma Corporation) into 10.0 ml of the acetate buffer (prepared in the above A). • D: A hyaluronic acid solution was prepared by dissolving 12.0 mg of potassium hyaluronate (manufactured by Wako Pure Chemical Industries, Ltd.) into 15.0 ml of the acetate buffer (prepared in the above A). • E: A 0.4N sodium hydroxide aqueous solution was prepared by dissolving 1.60 g of sodium hydroxide into 100 ml of distilled water. • F: After 4.95 g of boric acid was dissolved into 50 ml of distilled water, a 1N sodium hydroxide aqueous solution was added until pH reached 9.1. Subsequently, the whole amount was made 100 ml by adding distilled water. • G: 1.0 g of p-dimethylaminobenzaldehyde, 1.25 ml of 10N hydrochloric acid, and 8.75 ml of acetic acid were mixed. The solution was used after the whole amount was made 100 ml by adding acetic acid immediately before use. • H: Each test compound was dissolved in the acetate buffer (prepared in the above A) so the final test concentration became 0.5 mg/ml and 1.0 mg/ml.
Next, the experimental operation was carried out with the procedures shown in the following (1) to (8).
(1) 0.2 ml of the test compound solution (prepared in the above H) and 0.1 ml of the hyaluronic acid-degrading enzyme solution (prepared in the B) were mixed and the whole was incubated at 37° C. for 20 minutes.
(2) To the above reaction solution was added 0.2 ml of the activator solution (prepared in the above C) and the whole was incubated at 37° C. for 20 minutes.
(3) To the above reaction solution was added 0.5 ml of the hyaluronic acid solution (prepared in the above D), and the whole was incubated at 37° C. for 40 minutes.
(4) To the above reaction solution was added 0.2 ml of the 0.4N sodium hydroxide aqueous solution (prepared in the above E), and the whole was cooled in an ice bath.
(5) To the above reaction solution was added 0.2 ml of the boric acid solution (prepared in the above F), and the whole was heated at 100° C. for 3 minutes.
(6) The above reaction solution was cooled in an ice bath.
(7) To the above reaction solution was added 3.0 ml of the p-dimethylaminobenzaldehyde solution (prepared in the above G), and the whole was incubated at 37° C. for 20 minutes.
(8) Absorbance of the reaction solution at 585 nm was measured using a spectrophotometer.
The above experimental operations were repeated three times, and the resulting numeric value was inserted in the following calculation formula and a mean value thereof was regarded as a hyaluronic acid-degrading enzyme activity inhibition ratio (%). Hyaluronic acid-degrading enzyme activity inhibition ratio (%)=(A−B)/A×100
A=absorbance obtained at the time when operation was carried out with addition of no test compound
B=absorbance obtained at the time when operation was carried out with addition of test compound
The compounds of the invention and magnesium ascorbate phosphate were each used in an enzymatic reaction solution in amounts of 0.1 mg/ml, 0.2 mg/ml, and 0.4 mg/ml, and the results were shown in Table 7 (since the compound 7 was not dissolved in a concentration of 0.4 mg/ml, the test was not carried out).

Data set [3] in a line: Test of scavenging DPPH radical (Test Example 8, 517 nm). The settings on record: final concentration of 10 μg/mL; 20 minutes, room temperature. How it is done:
Using the compound 7 obtained in Example 2 as well as dl-α-tocopherol (manufactured by Tokyo Kasei Kogyo Co., Ltd.) and butylhydroxytoluene (BHT) as comparative controls, a test of scavenging DDPH (1,1-diphenyl-2-picrylhydrazyl) radical, a stable radical, was carried out.
1 ml of 200 μM DPPH ethanol solution was added to 800 μl of 100 mM Tris-HCl buffer (pH 7.4) and 200 μl of an ethanol solution of the compound 7 (a final concentration of 10 μg/mL), followed by sufficient stirring. After the resulting mixture was allowed to stand in a dark place at room temperature for 20 minutes, the absorbance at 517 nm was measured (absorbance of the test solution)
The compound 13 of the invention as well as dl-α-tocopherol and butylhydroxytoluene as a known radical scavenger were similarly tested.
As a control, 800 μl of 100 mM Tris-HCl buffer (pH 7.4), 200 μl of ethanol, and 1 ml of 200 μM DPPH ethanol solution were used in the same manner as described above and the absorbance was measured (absorbance of the control solution).
With the individual compounds, the same measurement was repeated three times, and the mean value was inserted in the following formula to calculate a DPPH radical-scavenging ratio (%). DPPH radical-scavenging ratio (%)=[1−(absorbance of sample solution/absorbance of control solution)]×100
(In general: Loss of DPPH colour is used to gauge radical scavenging.)

Data set [4] can be described thus: Dissolution of test compound for the hyaluronic acid-degrading enzyme test. To be noted: concentration of 0.4 mg/ml, acetate buffer. It is filed as physicochemical. Here is the method:
as §1, with “The solution was used after the whole amount was made 100 ml by adding acetic acid immediately before use. • H: Each test compound was dissolved in the acetate buffer (prepared in the above A) so the final test concentration became 0.5 mg/ml and 1.0 mg/ml.” left out

`COc1cc(CCC(=O)/C=C/CCCCCCC(=O)O)ccc1O` [Compound 7]: the “Tyrosinase activity inhibition ratio (%)” value in data set [1] (0.5 mg/mL in enzymatic reaction solution) is reported as 59.8%; in data set [1] (1 mg/mL in enzymatic reaction solution) it was 77.1%. Also, the “Hyaluronic acid-degrading enzyme activity inhibition ratio (%)” value is 10.6% in data set [2] (0.1 mg/mL) and 41.3% in data set [2] (0.2 mg/mL). The “DPPH radical-scavenging ratio (%)” value in data set [3] is listed as 33.7%. Besides, the “Solubility in the test solution” value in data set [4] is “not dissolved”.
